The nature of series [1]: pH-dependent solubility. In kind it is physicochemical. The note with it: pHs > 4. The source says: For immediate release formulations, such pH-dependent properties may result in a reduction in bioavailability when dosed with acid reducing agents, such as, e.g., famotidine or omeprazole. […] While using the higher-energy, amorphous free base form of BMS-986165 helps address the above challenges, formulating amorphous BMS-986165 presents other challenges, including ensuring physical stability of the amorphous form during storage, and maintaining supersaturation of the compound during dissolution in the GI tract.

The nature of series [2]: Chemical stability of BMS-986165:HPMCAS-H SDDs upon storage (related substances). The settings on record: API standard, no stability condition printed. In kind it is physicochemical. The method, then:
Lots of 25% w/w BMS-986165 SDD with HPMCAS-H were assessed for physical and chemical stability. […] Dissolution performance in the microcentrifuge test was unchanged.
There was no evidence of crystallization by PXRD in any SDD after storage for up to 6 months at 40° C./75%RH open (FIG. 1A and FIG. 1B). DSC data indicated slight changes similar to those observed in 25% w/w BMS-986165 SDD after exposure to 50° C./75%RH or 40° C./75%RH but there was no trend with API loading and the results were considered to reflect an “ageing” or “annealing” effect rather than crystal formation. Scanning electron microscopy (SEM) images confirmed the presence of a single phase homogenous dispersion (FIGS. 2A-C, FIGS. 3A-C, FIGS. 4A-C).

As to `[2H]C([2H])([2H])NC(=O)c1nnc(NC(=O)C2CC2)cc1Nc1cccc(-c2ncn(C)n2)c1OC` [BMS-986165 crystalline free base, 6-(cyclopropaneamido)-4-((2-methoxy-3-(1-methyl-1H-1,2,4-triazol-3-yl)phenyl)amino)-N-(methyl-d3)pyridazine-3-carboxamide], the solubility result in series [1] is “low solubility”.
In the case of `[2H]C([2H])([2H])NC(=O)c1nnc(NC(=O)C2CC2)cc1Nc1cccc(-c2ncn(C)n2)c1OC` [BMS-986165, 6-(cyclopropaneamido)-4-((2-methoxy-3-(1-methyl-1H-1,2,4-triazol-3-yl)phenyl)amino)-N-(methyl-d3)pyridazine-3-carboxamide], in series [2], the “BMS-986165 (relative ret. time 1.00), related substances” value was 99.48 and the Total imporities >LOQ stood at 0.52%.

The record behind these values is patent US20230255964A1, “EXTENDED RELEASE DOSAGE FORMS FOR TYK2 INHIBITORS” (Bristol-Myers Squibb Company, priority 2019, published 2023).
